Measured values as given in patent US10130616B2, “Securinine and norsecurinine analogue compounds for the treatment of myeloid disorders” (Case Western Reserve University, priority 2013, dated 2018).
Where two headings read alike, the source gives them in different places.

Experiments:
HL-60 cells = assay: Growth of HL-60 cells (IC50); format: cell-based, human; conditions: Homo sapiens, HL-60, HL-60 cells; value bracketed between tested concentrations; read-out: HL-60, IC50
HL-60 leukemic cells = assay: Nitroblue Tetrazolium (NBT) reduction assay, differentiation of HL-60 leukemic cells; format: cell-based, human; conditions: Homo sapiens
Description: In an aspect of the present disclosure, the compounds of the disclosure can be identified using a novel high-throughput screen that is biased to identify agents that have both a high potency and low toxicity in a myeloid disorder disease model, such as an animal or cell model. In some embodiments, the high-throughput screen measures the differentiation of HL-60 leukemic cells using a quantitative nitroblue tetrazolium (NBT) reduction assay. Screening HL-60 cells, human promyelocytic cells, is advantageous as they have been used extensively as a cell line to study myeloid differentiation. Though promyelocytic cells, HL-60 cells were derived from a patient with acute myeloblastic leukemia with maturation, FAB-M2.
This technique has also been widely exploited in HL-60 cells to analyze myelomonocytic differentiation.
The NBT screen works due to changes in the oxidoreductases during differentiation that lead to increases in rates of NBT reduction. NBT is reduced due to the production of superoxide that is catalyzed by an NADPH oxidase. […] NBT is reduced by superoxide from a soluble yellow compound to insoluble blue formazan granules whose formation can be monitored spectrophotometrically at 560 nm as the unreduced dye has minimal absorbance at this wavelength. A quantitative NBT reduction assay is ideal for this type of screen as it is simple, sensitive, quantitative, requires minimal cells, has been proven to have low well to well variability, and the amount of reduced NBT is proportional to the number of cells reducing the dye as well as the amount reduced by each cell.
To discover novel AML differentiation-inducing compounds a rapid high-throughput screen (HTS) was developed and optimized. The screen was designed to be biased to identify compounds that, unlike the majority of known differentiation-inducing agents, have both high potency and low toxicity. The screen measured the differentiation of HL-60 leukemic cells using a quantitative Nitroblue Tetrazolium (NBT) reduction assay, a test that is used extensively as a measure of functional myelomonocytic differentiation. The basis for the screen is unreduced NBT exists as a yellow soluble dye. Differentiated leukemic cells are capable of producing a respiratory burst that can reduce NBT into a blue insoluble compound that can be measured spectrophotometrically. This forward chemical genetics approach allowed the discovery of novel compounds that can act on targets not previously known to be “drugable.” As only live cells can reduce NBT, the screen is biased in identifying relatively nontoxic compounds.
To perform the screen, duplicate plates of HL-60 cells were cultured at a density of 5×10^4 cells/mL with 10 μM of each compound in 96 well plates for 5 days. To determine the relative capability for a compound to induce differentiation compared to known potent inducers, each plate destined for the NBT reduction assay included wells with 0.1% DMSO (vehicle control) and 1 μM ATRA. This approach eliminates any slight day to day variation in NBT reduction values and allows the discovery of compounds with similar or greater efficacy to ATRA. Differentiation was determined in the 96 well plates by incubating the cells with 1 mg/mL of NBT and 200 ng/mL of PMA as the stimulant for the respiratory burst for 35 minutes at 37° C. The reaction was then stopped with HCl and the formazan solubilized with DMSO. Finally, the reaction mixture was read spectrophotometrically at 560 nm in a plate reader.
The securinine and norsecurinine analogues were tested and evaluated on their abilities to affect differentiation and growth of HL-60 cells (Table 1).

[1] = HL-60 cells, value bracketed between tested concentrations, read-out: HL-60, Dif50

SMILES | EC50 (HL-60 leukemic cells; [1]) [µM] | also measured
[N-]=[N+]=Nc1ccc(C#CC2=C[C@@H]3C[C@@]4(OC(=O)C=C24)[C@H]2CCCCN32)cc1 [Compound 54] |  | IC50 (HL-60 cells): 0.31 µM
Nc1ccc(C#CC2=C[C@@H]3C[C@@]4(OC(=O)C=C24)[C@H]2CCCCN32)cc1 [Compound 63] |  | IC50 (HL-60 cells): 0.156 µM
O=C1C=C2CC(SC34CC5CC(CC(C5)C3)C4)[C@@H]3C[C@@]2(O1)[C@H]1CCCCN31 (stereo partly drawn) [Compound 66] | > 30 | 
O=C1C=C2CC(SCC(F)(F)F)[C@@H]3C[C@@]2(O1)[C@H]1CCCCN31 (stereo partly drawn) [Compound 67] | 20 to 30 | 
O=C1C=C2CC(N3CCC(F)(F)C3)[C@@H]3C[C@@]2(O1)[C@H]1CCCCN31 (stereo partly drawn) [Compound 68] | > 30 | 
O=C1C=C2CC(SCc3cccs3)[C@@H]3C[C@@]2(O1)[C@H]1CCCCN31 (stereo partly drawn) [Compound 69] | 20 to 30 | 
O=C1C=C2CC(SCC3CCCCCC3)[C@@H]3C[C@@]2(O1)[C@H]1CCCCN31 (stereo partly drawn) [Compound 70] |  | EC50 (HL-60 leukemic cells; HL-60, read-out: HL-60, Dif50): 10 to 15 µM
CCCCCCCSC1CC2=CC(=O)O[C@@]23C[C@@H]1N1CCCC[C@@H]13 (stereo partly drawn) [Compound 71] |  | EC50 (HL-60 leukemic cells; HL-60, read-out: HL-60, Dif50): 20 to 30 µM
CCCCSC1CC2=CC(=O)O[C@@]23C[C@@H]1N1CCCC[C@@H]13 (stereo partly drawn) [Compound 72] | 20 to 30 | 
CCN(CC)CCSC1CC2=CC(=O)O[C@@]23C[C@@H]1N1CCCC[C@@H]13 (stereo partly drawn) [Compound 73] | 10 to 15 | 
CCCSC1CC2=CC(=O)O[C@@]23C[C@@H]1N1CCCC[C@@H]13 (stereo partly drawn) [Compound 74] | 15 to 20 | 
CC(C)SC1CC2=CC(=O)O[C@@]23C[C@@H]1N1CCCC[C@@H]13 (stereo partly drawn) [Compound 75] | 15 to 20 | 
NCCSC1CC2=CC(=O)O[C@@]23C[C@@H]1N1CCCC[C@@H]13 (stereo partly drawn) [Compound 77] | 10 to 15 | 
O=C(CCCC[C@@H]1SC[C@@H]2NC(=O)N[C@@H]21)NCCS[C@H]1CC2=CC(=O)O[C@@]23C[C@@H]1N1CCCC[C@@H]13 [Compound 78] | 10 to 15 | 
O=C1C=C2CC(NCC3CC3)[C@@H]3C[C@@]2(O1)[C@H]1CCCCN31 (stereo partly drawn) [Compound 79] | 10 to 15 | 
O=C1C=C2CC(NC3CC3)[C@@H]3C[C@@]2(O1)[C@H]1CCCCN31 (stereo partly drawn) [Compound 80] | 20 to 30 | 
O=C1C=C2CC(NC3CCCC3)[C@@H]3C[C@@]2(O1)[C@H]1CCCCN31 (stereo partly drawn) [Compound 81] | 10 to 15 | 
O=C1C=C2CC(NC3CCCCC3)[C@@H]3C[C@@]2(O1)[C@H]1CCCCN31 (stereo partly drawn) [Compound 82] | 15 to 20 | 
O=C1C=C2CC(NC3CCCCCC3)[C@@H]3C[C@@]2(O1)[C@H]1CCCCN31 (stereo partly drawn) [Compound 83] | > 30 | 
O=C1C=C2CC(NC3CCCCCCC3)[C@@H]3C[C@@]2(O1)[C@H]1CCCCN31 (stereo partly drawn) [Compound 84] | > 30 | 
O=C1C=C2CC(NC3CC(O)C3)[C@@H]3C[C@@]2(O1)[C@H]1CCCCN31 (stereo partly drawn) [Compound 85] | 10 to 15 | 
COc1ccc(CN[C@H]2CC3=CC(=O)O[C@@]34C[C@@H]2N2CCCC[C@@H]24)cc1 [Compound 86] | 15 to 20 | 
O=C1C=C2C[C@H](S(=O)(=O)c3ccccc3)[C@@H]3C[C@@]2(O1)[C@H]1CCCCN31 [Compound 88] | 5 to 7.5 | 
O=C1C=C2CC(n3cnc4ccccc43)[C@@H]3C[C@@]2(O1)[C@H]1CCCCN31 (stereo partly drawn) [Compound 91] | > 30 | 
O=C1C=C2CC(n3nnc4ccccc43)[C@@H]3C[C@@]2(O1)[C@H]1CCCCN31 (stereo partly drawn) [Compound 92] | 20 to 30 | 
O=C1C=C2CC(SCc3ccccc3)[C@@H]3C[C@@]2(O1)[C@H]1CCCCN31 (stereo partly drawn) [Compound 93] |  | EC50 (HL-60 leukemic cells; HL-60, read-out: HL-60, Dif50): > 30 µM
O=C1C=C2CC(SCc3ccccc3O)[C@@H]3C[C@@]2(O1)[C@H]1CCCCN31 (stereo partly drawn) [Compound 94] |  | EC50 (HL-60 leukemic cells; HL-60, read-out: HL-60, Dif50): 15 to 20 µM
CC(C)(C)OC(=O)NCCSC1CC2=CC(=O)O[C@@]23C[C@@H]1N1CCCC[C@@H]13 (stereo partly drawn) [Compound 95] | 15 to 20 | 
CSC1CC2=CC(=O)O[C@@]23C[C@@H]1N1CCCC[C@@H]13 (stereo partly drawn) [Compound 96] |  | EC50 (HL-60 leukemic cells; HL-60, read-out: HL-60, Dif50): 10 to 15 µM
O=C1C=C2CC(SC3CCCC3)[C@@H]3C[C@@]2(O1)[C@H]1CCCCN31 (stereo partly drawn) [Compound 97] |  | EC50 (HL-60 leukemic cells; HL-60, read-out: HL-60, Dif50): 15 to 20 µM
